Experimental data from US6737383B1, “Herbicidal oxadiazolidines” (priority 1999, dated 2004).

How the values were obtained:
[1] = system: cocklebur; experiment: Test B pre/postemergence cocklebur; assay type: in vivo, Xanthium strumarium
In short: (§1)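 Test chemicals in a non-phytotoxic solvent mixture with surfactant were sprayed preemergence onto planted seeds and postemergence onto plants 2 to 18 cm tall (1- to 4-leaf stage). After twelve to sixteen days in a greenhouse, injury was visually rated against untreated controls from 0 (no effect) to 10 (complete control).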

[2] = system: velvetleaf; experiment: Test B pre/postemergence velvetleaf; assay type: in vivo, Abutilon theophrasti
In short: as §1

[3] = system: giant foxtail; experiment: Test B pre/postemergence giant foxtail; assay type: in vivo, Setaria faberii
In short: as §1

[4] = system: soybean; experiment: Test B pre/postemergence soybean; assay type: in vivo, Glycine max
In short: as §1

[5] = system: wheat; experiment: Test B pre/postemergence wheat; assay type: in vivo, Triticum aestivum
In short: as §1

[6] = system: crabgrass; experiment: Test B pre/postemergence crabgrass; assay type: in vivo, Digitaria sanguinalis
In short: as §1

[7] = system: morningglory; experiment: Test B pre/postemergence morningglory; assay type: in vivo, Ipomoea hederacea
In short: as §1

[8] = system: wild oat; experiment: Test B pre/postemergence wild oat; assay type: in vivo, Avena fatua
In short: as §1

[9] = system: blackgrass; experiment: Test B pre/postemergence blackgrass; assay type: in vivo, Alopecurus myosuroides
In short: as §1

[10] = system: corn; experiment: Test B pre/postemergence corn; assay type: in vivo, Zea mays
In short: as §1

[11] = system: bamyardgrass; experiment: Test B flood test barnyardgrass; assay type: in vivo, Echinochloa crus-galli
In short: (§2)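 Plants were grown to the 2-leaf stage before treatment with test chemical, then held in a greenhouse for twelve to sixteen days. Injury was visually rated against untreated controls on a 0–10 scale, where 0 is no effect and 10 is complete control.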

[12] = system: rice; experiment: Test B flood test rice; assay type: in vivo, Oryza sativa
In short: as §2

[13] = system: surinam grass; experiment: Test B pre/postemergence surinam grass; assay type: in vivo, Brachiaria decumbens
In short: as §1

[14] = system: rape; experiment: Test B pre/postemergence rape; assay type: in vivo, Brassica napus
In short: as §1

[15] = system: smallflower flatsedge; experiment: Test B flood test smallflower flatsedge; assay type: in vivo, Cyperus difformis
In short: as §2

[16] = system: bedstraw; experiment: Test B pre/postemergence bedstraw; assay type: in vivo, Galium aparine; conditions: Preemergence
In short: as §1

[17] = system: duck salad; experiment: Test B flood test duck salad; assay type: in vivo, Heteranthera limosa
In short: as §2

[18] = system: sugar beet; experiment: Test B pre/postemergence sugar beet; assay type: in vivo, Beta vulgaris
In short: as §1

[19] = system: purple nutsedge; experiment: Test B pre/postemergence purple nutsedge; assay type: in vivo, Cyperus rotundus
In short: as §1

[20] = system: pigweed; experiment: Test B pre/postemergence pigweed; assay type: in vivo, Amaranthus retroflexus
In short: as §1

[21] = Postemergence, Rate 62 g/ha, scale 0 to 10, 0 is no effect, 10 is complete control
[22] = Postemergence, Rate 125 g/ha, scale of 0 to 10 where 0 is no effect and 10 is complete control
[23] = Postemergence, Rate 500 g/ha, scale 0 (no effect) to 10 (complete control)
[24] = Preemergence, Rate 250 g/ha, scale 0 (no effect) to 10 (complete control)
[25] = Rate 62 g/ha, Preemergence, scale 0 to 10
[26] = Rate 125 g/ha, Preemergence, scale 0 to 10 (0 no effect, 10 complete control)
[27] = Rate 250 g/ha, Postemergence, scale 0 to 10, 0 is no effect, 10 is complete control
[28] = Rate 500 g/ha, Preemergence, scale 0 to 10 (0 no effect, 10 complete control)
[29] = Pre-emergence, Rate 62 g/ha, scale 0 to 10, 0 is no effect, 10 is complete control
[30] = Rate 125 g/ha, Pre-emergence section (flood test species), scale 0 to 10, 0 no effect, 10 complete control
[31] = Rate 250 g/ha, Pre-emergence (flood test species), scale 0 to 10, 0 is no effect, 10 is complete control
[32] = Rate 500 g/ha, Pre-emergence section of Table B, 0 to 10 scale (0 no effect, 10 complete control)

SMILES: CC(C)N(C(=O)n1oc(=O)n(CC2=NOCCO2)c1=O)c1ccc(F)cc1 [Compound 765]
- Plant response rating, Cocklebur [1, 21]: 0
- Cocklebur plant response rating [1, 22]: 0
- Cocklebur plant response rating [1, 23]: 3
- Cocklebur plant response rating [1, 24]: 0
- Cocklebur plant response rating [1, 25]: 0
- Cocklebur plant response rating [1, 26]: 0
- Cocklebur plant response rating [1, 27]: 0
- Cocklebur plant response rating [1, 28]: 0
- Plant response rating, Velvetleaf [2, 21]: 6
- Velvetleaf plant response rating [2, 23]: 7
- Velvetleaf plant response rating [2, 25]: 0
- Velvetleaf plant response rating [2, 26]: 4
- Velvetleaf plant response rating [2, 27]: 7
- Velvetleaf plant response rating [2, 28]: 7
- Plant response rating, Giant foxtail [3, 21]: 5
- Giant foxtail plant response rating [3, 22]: 8
- Giant foxtail plant response rating [3, 23]: 9
- Giant foxtail plant response rating [3, 24]: 10
- Giant foxtail plant response rating [3, 25]: 9
- Giant foxtail plant response rating [3, 26]: 10
- Giant foxtail plant response rating [3, 27]: 9
- Giant foxtail plant response rating [3, 28]: 10
- Plant response rating, Soybean [4, 21]: 2
- Soybean plant response rating [4, 23]: 5
- Soybean plant response rating [4, 25]: 0
- Soybean plant response rating [4, 26]: 0
- Soybean plant response rating [4, 27]: 5
- Soybean plant response rating [4, 28]: 0
- Plant response rating, Wheat [5, 21]: 0
- Wheat plant response rating [5, 23]: 5
- Wheat plant response rating [5, 25]: 3
- Wheat plant response rating [5, 27]: 3
- Wheat plant response rating [5, 28]: 8
- Plant response rating, Crabgrass [6, 21]: 3
- Crabgrass plant response rating [6, 22]: 5
- Crabgrass plant response rating [6, 23]: 9
- Crabgrass plant response rating [6, 24]: 10
- Crabgrass plant response rating [6, 25]: 9
- Crabgrass plant response rating [6, 26]: 10
- Crabgrass plant response rating [6, 27]: 7
- Crabgrass plant response rating [6, 28]: 10
- Plant response rating, Morningglory [7, 21]: 5
- Morningglory plant response rating [7, 22]: 6
- Morningglory plant response rating [7, 23]: 8
- Morningglory plant response rating [7, 25]: 0
- Morningglory plant response rating [7, 26]: 0
- Morningglory plant response rating [7, 27]: 6
- Morningglory plant response rating [7, 28]: 0
- Plant response rating, Wild oats [8, 21]: 0
- Wild oats plant response rating [8, 23]: 2
- Wild oats plant response rating [8, 25]: 4
- Wild oats plant response rating [8, 27]: 0
- Wild oats plant response rating [8, 28]: 9
- Plant response rating, Blackgrass [9, 21]: 3
- Blackgrass plant response rating [9, 22]: 5
- Blackgrass plant response rating [9, 23]: 7
- Blackgrass plant response rating [9, 24]: 8
- Blackgrass plant response rating [9, 25]: 7
- Blackgrass plant response rating [9, 27]: 7
- Blackgrass plant response rating [9, 28]: 9
- Plant response rating, Corn [10, 21]: 0
- Corn plant response rating [10, 22]: 0
- Corn plant response rating [10, 23]: 3
- Corn plant response rating [10, 24]: 0
- Corn plant response rating [10, 25]: 0
- Corn plant response rating [10, 26]: 0
- Corn plant response rating [10, 27]: 0
- Corn plant response rating [10, 28]: 2
- Barnyardgrass plant response rating [11, 29]: 0
- Barnyardgrass plant response rating [11, 30]: 0
- Barnyardgrass plant response rating [11, 31]: 0
- Barnyardgrass plant response rating [11, 32]: 0
- Rice plant response rating [12, 29]: 0
- Rice plant response rating [12, 30]: 0
- Rice plant response rating [12, 31]: 0
- Rice plant response rating [12, 32]: 0
- Plant response rating, B. signalgrass [13, 21]: 3
- B. signalgrass plant response rating [13, 22]: 7
- B. signalgrass plant response rating ([13]; Preemergence, Rate 62 g/ha, scale of 0 to 10 where 0 is no effect and 10 is complete control): 5
- B. signalgrass plant response rating [13, 24]: 7
- B. signalgrass plant response rating [13, 27]: 7
- B. signalgrass plant response rating ([13]; Rate 500 g/ha, Postemergence, scale 0 to 10, 0 is no effect, 10 is complete control): 8
- B. signalgrass plant response rating [13, 28]: 7
- Plant response rating, Rape [14, 21]: 0
- Rape plant response rating [14, 22]: 0
- Rape plant response rating [14, 23]: 1
- Rape plant response rating [14, 25]: 2
- Rape plant response rating [14, 27]: 0
- Rape plant response rating [14, 28]: 8
- S. Flatsedge plant response rating [15, 29]: 0
- S. Flatsedge plant response rating [15, 30]: 0
- S. Flatsedge plant response rating [15, 31]: 0
- S. Flatsedge plant response rating [15, 32]: 0
- Bedstraw plant response rating ([16]; Rate 250 g/ha, scale 0 (no effect) to 10 (complete control)): 2
- Bedstraw plant response rating ([16]; Rate 62 g/ha, scale 0 to 10): 0
- Bedstraw plant response rating ([16]; Rate 500 g/ha, scale 0 to 10 (0 no effect, 10 complete control)): 8
- Ducksalad plant response rating [17, 29]: 0
- Ducksalad plant response rating [17, 30]: 0
- Ducksalad plant response rating [17, 31]: 0
- Ducksalad plant response rating [17, 32]: 0
- Plant response rating, Sugarbeets [18, 21]: 0
- Sugarbeets plant response rating [18, 23]: 4
- Sugarbeets plant response rating [18, 25]: 6
- Sugarbeets plant response rating [18, 27]: 0
- Sugarbeets plant response rating [18, 28]: 9
- Plant response rating, Nutsedge [19, 21]: 0
- Nutsedge plant response rating [19, 22]: 0
- Nutsedge plant response rating [19, 23]: 3
- Nutsedge plant response rating [19, 25]: 0
- Nutsedge plant response rating [19, 27]: 0
- Nutsedge plant response rating [19, 28]: 0
- Plant response rating, Redroot pigweed [20, 21]: 6
- Redroot pigweed plant response rating [20, 22]: 7
- Redroot pigweed plant response rating [20, 23]: 8
- Redroot pigweed plant response rating [20, 25]: 8
- Redroot pigweed plant response rating [20, 28]: 10
